We go through 15 compounds from patent US6867320B2, “Substituted phenylalkanoic acid derivatives and use thereof” (Asahi Kasei Pharma Corporation, priority 2002, dated 2005).

Assay [1] deals with PGE2 production from IL-1β-stimulated MG-63 cells. Description: Suppressing action on PGE2 production from IL-1β-stimulated MG-63 cells. Format: cell-based. The note with it: Homo sapiens, IL-1β 1 ng/ml, 18 hours, read-out: PGE2 production suppression ratio. The method in brief: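 PGE2 in 18 h supernatants was quantified by EIA and expressed as % suppression relative to IL-1β-only and unstimulated controls. Cells were the MG-63 osteosarcoma line, plated at 2×10^4/well, given compound in 0.5% FBS EMEM, then 1 ng/ml IL-1β final.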

Assay [2] relates to zymosan-stimulated footpad edema. Description: Mouse zymosan-stimulated footpad edema reaction. Format: in vivo. The conditions noted are these: ICR female mice, oral 0.1 to 500 mg/kg, compared with positive control group. The gist of the method: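 Female ICR mice (6–7 weeks, n=8) dosed orally at 0.1 to 500 mg/kg in 0.5% methylcellulose; 1 h later zymosan (1 mg/ml, 0.02 ml) injected s.c. into right hind footpad. Edema volume at 1 and 2 h gave AUC to 2 h; suppression (%) calculated against positive control AUC.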

In assay [3] the test system is IgE-stimulated footpad edema. Description: Mouse IgE-stimulated footpad edema reaction. The format is in vivo. The conditions noted are these: C57BL/6 male mice, oral 0.1 to 500 mg/kg, compared with positive control group. How it is done:
4. Suppressing Effect on Mouse IgE-stimulated Footpad Edema Reaction
Suppression on footpad edema caused by IgE antibody as an allergic stimulant was studied by the following method. Groups of C57BL/6 male mice (9- to 11-week old) each consisting of five mice were used for the test. Anti-DNP-BSA IgE serum was subcutaneously administered in a volume of 20 μl to right hind leg footpad of each mouse one day before the test. A test compound was suspended or dissolved in purified water containing 0.5% methylcellulose and orally administered to the test animals at 0.1 to 500 mg/0.2 ml/kg. To the control group, purified water containing 0.5% methylcellulose was administered in a similar manner, which was not added with the test compound. Two hours after the administration of the test compound, 0.2 ml of a solution of DNP-BSA dissolved in physiological saline (Otsuka Pharmaceutical) at 2.5 μg/ml was intravenously administered. The thickness of right hind leg footpad was measured by using a digital thickness gauge (MITSUTOYO) 10, 15, 20, and 30 minutes after the administration of DNP-BSA. A difference of the thickness of footpad measured above and the thickness before the administration of the test compound measured beforehand was regarded as a thickness of edema.
For the thickness of the edema at 10, 15, 20 and 30 minutes after the DNP-BSA administration, a graph was prepared indicating time in abscissa and the edema thickness in ordinate, and edema thickness AUC […] was obtained by calculation according to the following equation. Edema thickness AUC (mm·minute)=1/2×10×A+5×(A+B)/2+5×(B+C)/2+10×(C+D)/2 • A: Edema thickness 10 minutes after DNP-BSA administration • B: Edema thickness 15 minutes after DNP-BSA administration • C: Edema thickness 20 minutes after DNP-BSA administration • D: Edema thickness 30 minutes after DNP-BSA administration
A suppressing ratio on edema of a test compound was obtained by calculation in accordance with the following equation. Edema suppression ratio (%)=[1−B/A]×100 • A: Edema thickness AUC of positive control • B: Edema thickness AUC of test compound administered group (2) Measurement Results

The subject of assay [4] is PGD2 production from IgE-stimulated RBL-2H3 cells. Briefly: Suppressing action on PGD2 production from IgE-stimulated RBL-2H3 cells. The note with it: Rattus norvegicus, 10 min, IgE/DNP-BSA stimulated RBL-2H3 cells, read-out: PGD2 production suppression ratio. Format: cell-based. The gist of the method: (§1)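 Rat RBL-2H3 mastocytoma cells, sensitized 30 min with anti-DNP-BSA IgE, then given test compound in 0.5% FBS medium and stimulated with DNP-BSA (100 ng/ml final). Supernatant PGD2 and LTB4 were measured by EIA after 10 min. Suppression ratio is calculated against unstimulated and stimulant-only controls.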

Assay [5] has as its system LTB4 production from IgE-stimulated RBL-2H3 cells. Briefly: Suppressing action on LTB4 production from IgE-stimulated RBL-2H3 cells. The format is cell-based. The note with it: Rattus norvegicus, 10 min, IgE/DNP-BSA stimulated RBL-2H3 cells, read-out: LTB4 production suppression ratio. The method in brief:
as §1

Bounds are passed on as bounds.

With `O=C(O)CCc1ccc(OCCc2ccccc2F)c(-c2ccc3ccccc3c2)c1` [Compound 053, 3-{4-[2-(2-fluorophenyl)ethyloxy]-3-(naphthalen-2-yl)phenyl}propionic acid], the inhibition at 0.4 µM in assay [1], in assay [4] and in assay [5] was at least 50% throughout. Further, in assay [2], the “suppression of footpad edema caused by zymosan” value (shortened to “suppression … by zymosan”) is “suppressed footpad edema”. Further, the “suppression of footpad edema caused by IgE stimulation” value (from here on “suppression … by IgE stimulation”) in assay [3] was “suppressed the footpad edema”.

For `O=C(O)CCc1ccc(OCC2CCCC2)c(-c2ccc3[nH]ccc3c2)c1` [Compound 100, 3-[4-cyclopentylmethyloxy-3-(1H-indol-5-yl)phenyl]propionic acid], the inhibition at 0.4 µM in assay [1], in assay [4] and in assay [5] was at least 50% each time. In addition, the “suppression … by zymosan” value in assay [2] is reported as “suppressed footpad edema”. The “suppression … by IgE stimulation” value in assay [3] was “suppressed the footpad edema”.

For `Cn1ccc2cc(-c3cc(CCC(=O)O)ccc3OC3CCCC3)ccc21` [Compound 108, 3-[4-cyclopentyloxy-3-(1-methyl-1H-indol-5-yl)phenyl]propionic acid], the inhibition at 0.4 µM in assay [1], in assay [4] and in assay [5] was at least 50% in each case. In addition, the “suppression … by zymosan” value in assay [2] is given as “suppressed footpad edema”. Besides, the “suppression … by IgE stimulation” value in assay [3] is “suppressed the footpad edema”.

As for `CC(Oc1ccc(CCC(=O)O)cc1-c1ccc2[nH]ccc2c1)c1ccccc1` (stereo not drawn) [Compound 132, 3-[3-(1H-indol-5-yl)-4-(1-phenylethyloxy)phenyl]propionic acid], the inhibition at 0.4 µM in assay [1], in assay [4] and in assay [5] was at least 50% in each case. Besides, the “suppression … by zymosan” value in assay [2] was “suppressed footpad edema”. Also, in assay [3], the “suppression … by IgE stimulation” value is reported as “suppressed the footpad edema”.

With `O=C(O)CCc1ccc(OCc2ccc(F)cc2)c(-c2ccc3[nH]ccc3c2)c1` [Compound 146, 3-[4-(4-fluorophenylmethyloxy)-3-(1H-indol-5-yl)phenyl]propionic acid], the inhibition at 0.4 µM in assay [1], in assay [4] and in assay [5] was at least 50% in each case. The “suppression … by zymosan” value in assay [2] is “suppressed footpad edema”. The “suppression … by IgE stimulation” value in assay [3] is listed as “suppressed the footpad edema”.

For the compound `O=C(O)CCc1ccc(OCC2CC3CCC2C3)c(-c2ccc3[nH]ccc3c2)c1` (stereo not drawn) [Compound 177, 3-[4-(bicyclo[2,2,1]hept-2-ylmethyloxy)-3-(1H-indol-5-yl)phenyl]propionic acid], the inhibition at 0.4 µM in assay [1], in assay [4] and in assay [5] was at least 50% each time. Moreover, the “suppression … by zymosan” value in assay [2] is on record as “suppressed footpad edema”. Further, the “suppression … by IgE stimulation” value in assay [3] is reported as “suppressed the footpad edema”.

Consider `CC(C)C(C)COc1ccc(CCC(=O)O)cc1-c1ccc2[nH]ccc2c1` (stereo not drawn) [Compound 181, 3-[4-(2,3-dimethylbutyloxy)-3-(1H-indol-5-yl)phenyl]propionic acid], for which the inhibition at 0.4 µM in assay [1], in assay [4] and in assay [5] was at least 50% throughout. For the same compound, in assay [2], the “suppression … by zymosan” value is listed as “suppressed footpad edema”. Also, in assay [3], the “suppression … by IgE stimulation” value is recorded as “suppressed the footpad edema”.

On to `CCCCOc1ccc(COc2ccc(CCC(=O)O)cc2-c2ccc3[nH]ccc3c2)cc1` [Compound 186, 3-{4-[4-(butyloxy)phenylmethyloxy]-3-(1H-indol-5-yl)phenyl}propionic acid], for which the inhibition at 0.4 µM in assay [1], in assay [4] and in assay [5] was at least 50% in each case. Also, the “suppression … by zymosan” value in assay [2] is recorded as “suppressed footpad edema”. In addition, in assay [3], the “suppression … by IgE stimulation” value is listed as “suppressed the footpad edema”.

As for `O=C(O)CCc1ccc(OCCCc2ccccc2)c(-c2ccc3[nH]ccc3c2)c1` [Compound 220, 3-[3-(1H-indol-5-yl)-4-(3-phenylpropyloxy)phenyl]propionic acid], the inhibition at 0.4 µM in assay [1], in assay [4] and in assay [5] was at least 50% throughout. Further, the “suppression … by zymosan” value in assay [2] was “suppressed footpad edema”. Moreover, in assay [3], the “suppression … by IgE stimulation” value is recorded as “suppressed the footpad edema”.

With `CN(CCOc1ccc(CCC(=O)O)cc1-c1ccc2[nH]ccc2c1)c1ccccc1` [Compound 229, 3-{3-(1H-indol-5-yl)-4-[2-(N-phenyl-N-methylamino)-ethyloxy]phenyl}propionic acid], the inhibition at 0.4 µM in assay [1], in assay [4] and in assay [5] was at least 50% each time. Besides, the “suppression … by zymosan” value in assay [2] was “suppressed footpad edema”. Moreover, the “suppression … by IgE stimulation” value in assay [3] is “suppressed the footpad edema”.

`O=C(O)CCc1ccc(OCC2CCCCC2)c(-c2ccc3[nH]ccc3c2)c1` [Compound 231, 3-[4-cyclohexylmethyloxy-3-(1H-indol-5-yl)phenyl]propionic acid]: the inhibition at 0.4 µM in assay [1], in assay [4] and in assay [5] was at least 50% each time. The “suppression … by zymosan” value in assay [2] was “suppressed footpad edema”. Further, in assay [3], the “suppression … by IgE stimulation” value is “suppressed the footpad edema”.

With `Cn1ccc2cc(-c3cc(CCC(=O)O)ccc3OCC3CCCCC3)ccc21` [Compound 233, 3-[4-cyclohexylmethyloxy-3-(1-methyl-1H-indol-5-yl)phenyl]propionic acid], the inhibition at 0.4 µM in assay [1], in assay [4] and in assay [5] was at least 50% throughout. For the same compound, the “suppression … by zymosan” value in assay [2] was “suppressed footpad edema”. Moreover, the “suppression … by IgE stimulation” value in assay [3] was “suppressed the footpad edema”.

Regarding `CCn1ccc2cc(-c3cc(CCC(=O)O)ccc3OCC3CCCC3)ccc21` [Compound 236, 3-[4-cyclopentylmethyloxy-3-(1-ethyl-1H-indol-5-yl)phenyl]propionic acid], the inhibition at 0.4 µM in assay [1], in assay [4] and in assay [5] was at least 50% in each case. Also, the “suppression … by zymosan” value in assay [2] is reported as “suppressed footpad edema”. Moreover, the “suppression … by IgE stimulation” value in assay [3] is given as “suppressed the footpad edema”.

Regarding `O=C(O)CCc1ccc(OCC2CCCC2)c(-c2ccc3c(ccn3CCO)c2)c1` [Compound 243, 3-{4-cyclopentylmethyloxy-3-[1-(2-hydroxyethyl)-1H-indol-5-yl]phenyl}propionic acid], the inhibition at 0.4 µM in assay [1], in assay [4] and in assay [5] was at least 50% in each case. In addition, the “suppression … by zymosan” value in assay [2] is listed as “suppressed footpad edema”. In addition, in assay [3], the “suppression … by IgE stimulation” value is recorded as “suppressed the footpad edema”.

On to `Cn1ccc2cc(-c3cc(CCC(=O)O)ccc3OCc3ccccc3Cl)ccc21` [Compound 245, 3-[4-(2-chlorophenylmethyloxy)-3-(1-methyl-1H-indol-5-yl)phenyl]propionic acid], for which the inhibition at 0.4 µM in assay [1], in assay [4] and in assay [5] was at least 50% in each case. The “suppression … by zymosan” value in assay [2] is given as “suppressed footpad edema”. Moreover, in assay [3], the “suppression … by IgE stimulation” value is “suppressed the footpad edema”.
